Where a name gives a salt, the structure may show the parent alone.
Columns and labels:
Assay type in all cases: cell-based
sonic hedgehog pathway [1] = assay: Hedgehog pathway Gli-luciferase reporter assay, TM3 cells; settings: TM3 mouse Leydig cells
Outline: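 Luminescence read-out of gli-promoter luciferase in stably transfected cells; 11-point 1:3 dose curves, 24 h compound exposure in 0.5% FBS, ± octyl-modified Hh protein 1–5 ng/ml. AMAX as % of plate low/high controls; EC50 from curve; >20% AMAX counted active.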

sonic hedgehog pathway [2] = assay: Human hedgehog reporter assay HEPM-GliLuc (HGL); settings: HepM human embryonic palatal mesenchymal cells, Gli-luciferase reporter
Outline: (§1)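 Stable Gli-promoter luciferase reporter lines (human HepM, Daoy; mouse S12) plated at 10,000–20,000 cells/well, switched to 0.5% FBS after 48–72 h, then given compound (1–5 μM; 11-point 1:3 dose curves) with or without octyl-modified hedgehog protein (1–5 ng/ml) for 24 h. Luminescence read; AMAX vs plate controls and EC50 derived.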

sonic hedgehog pathway [3] = assay: Hedgehog pathway Gli-luciferase reporter assay, S12 cells; settings: S12 mouse embryonic mesenchymal cells, read-out: S12 Avg. EC50
From the text: Mouse (TM3: mouse Leydig cells; S12: mouse embryonic mesenchymal cells) and human (Daoy: human medulloblastoma cell; HepM: human embryonic palatal mesenchymal cell) cell lines are used to screen small molecules for their ability to modulate the activity of the sonic hedgehog pathway (Table 1, Table 2, and Table 3). Stable hedgehog pathway reporter cell lines are established by specific antibiotic selection following transfection of a reporter plasmid containing a luciferase gene located directly downstream from the gli promoter. Consequently, any observable changes in cellular luciferase activity may be attributed to changes in sonic hedgehog pathway activity in mouse and human cells, respectively, since gli is the major by-product of this pathway. To calculate activity, we generate an eleven point dose curve for each compound using 1:3 dilutions in 96 well assay plates. Each plate tested also contains low and high control to establish maximal pathway activation so to establish/compare a percentage activation of each tested compound (AMAX) on respective plates. Also we calculate EC50 values, or a concentration where the pathway will be exactly 50% activated, for each tested compound to determine potency. In these cell lines, compounds that register >20% AMAX values are considered active.
Stable hedgehog pathway reporter cell lines are established following specific antibiotic selection following transfection of a reporter plasmid In short, typically cells are plated in MicroTiter-plates at 10,000-20,000 cells per well, in growth media (containing 10%-20% FBS). After 48-72 hrs (HGL and DGL respectively) the media in the assay plates is switched to low-serum containing media (0.5% FBS). At that time compounds are added (at 1-5 μM) to the assay plates, in the presence or absence of hedgehog protein (octyl-modified version; 1-5 ng/ml). After another 24 hrs of incubation, the media from the assay plates is discarded and replaced with luciferase assay-mix. Subsequently, plates are incubated at RT for ˜15-30 mins and then read in a luminometer. [note: addition of the Hedgehog protein, although not critical, will sensitize the assay allowing the identification of weak actives].

sonic hedgehog pathway [4] = assay: Human hedgehog reporter assay Daoy-GliLuc (DGL); settings: Daoy human medulloblastoma cells, Gli-luciferase reporter; read-out: Daoy Avg. EC50
Outline: as §1

Measured: EC50

CN[C@H]1CC[C@@H](N(Cc2cc(-c3ccc(C(=O)N(C)C)cc3)ccc2OC)C(=O)c2sc3ccccc3c2Cl)CC1 [317 (R19)]
< 50 nM: sonic hedgehog pathway [1] | sonic hedgehog pathway [2] | sonic hedgehog pathway [3]

CN[C@H]1CC[C@@H](N(Cc2cc(-c3ccnc(C(N)=O)c3)ccc2OC)C(=O)c2sc3c(F)ccc(F)c3c2Cl)CC1 [354 (R17)]
< 50 nM: all assays above

CN[C@H]1CC[C@@H](N(Cc2cc(-c3cccnc3)ccc2OC)C(=O)c2sc3cccc(F)c3c2Cl)CC1 [360 (R16), 3-Chloro-4-fluoro-benzo[b]thiophene-2-carboxylic acid (2-methoxy-5-pyridin-3-yl-benzyl)-(4-methylamino-cyclohexyl)-amide dihydrochloride]
< 50 nM: all assays above

CN[C@H]1CC[C@@H](N(Cc2cc(-c3ccc(N)nc3)ccc2OC)C(=O)c2sc3cccc(F)c3c2Cl)CC1 [362 (R13), 3-Chloro-4-fluoro-benzo[b]thiophene-2-carboxylic acid [5-(6-amino-pyridin-3-yl)-2-methoxy-benzyl]-(4-methylamino-cyclohexyl)-amide dihydrochloride]
< 50 nM: all assays above

CN[C@H]1CC[C@@H](N(Cc2cc(-c3ccc(C(C)=O)cc3)ccc2OC)C(=O)c2sc3ccccc3c2Cl)CC1 [Compound 303, 3-Chloro-benzo[b]thiophene-2-carboxylic acid (4′-acetyl-4-methoxy-biphenyl-3-ylmethyl)-(4-methylamino-cyclohexyl)-amide hydrochloride]
< 50 nM: all assays above

CN[C@H]1CC[C@@H](N(Cc2cc(-c3ccc(C(N)=O)cc3)ccc2OC)C(=O)c2sc3ccccc3c2Cl)CC1 [Compound 316, 3-Chloro-benzo[b]thiophene-2-carboxylic acid (4′-carbamoyl-4-methoxy-biphenyl-3-ylmethyl)-(4-methylamino-cyclohexyl)-amide hydrochloride]
< 50 nM: sonic hedgehog pathway [1] | sonic hedgehog pathway [2] | sonic hedgehog pathway [3]

CN[C@H]1CC[C@@H](N(Cc2cc(-c3ccc(N)nc3)ccc2OC)C(=O)c2sc3ccccc3c2Cl)CC1 [Compound 319, 3-Chloro-benzo[b]thiophene-2-carboxylic acid [5-(6-amino-pyridin-3-yl)-2-methoxy-benzyl]-(4-methylamino-cyclohexyl)-amide dihydrochloride]
< 50 nM: sonic hedgehog pathway [1] | sonic hedgehog pathway [2] | sonic hedgehog pathway [3]

CN[C@H]1CC[C@@H](N(Cc2cc(-c3ccc(CO)cc3)ccc2OC)C(=O)c2sc3ccccc3c2Cl)CC1 [Compound 329, 3-Chloro-benzo[b]thiophene-2-carboxylic acid (4′-hydroxymethyl-4-methoxy-biphenyl-3-ylmethyl)-(4-methylamino-cyclohexyl)-amide hydrochloride]
< 50 nM: sonic hedgehog pathway [1] | sonic hedgehog pathway [2] | sonic hedgehog pathway [3]

CN[C@H]1CC[C@@H](N(Cc2cc(-c3ccc(C(C)=O)cc3)ccc2OC)C(=O)c2sc3c(F)ccc(F)c3c2Cl)CC1 [Compound 332, 3-Chloro-4,7-difluoro-benzo[b]thiophene-2-carboxylic acid (4′-acetyl-4-methoxy-biphenyl-3-ylmethyl)-(4-methylamino-cyclohexyl)-amide hydrochloride]
< 50 nM: all assays above

CN[C@H]1CC[C@@H](N(Cc2cc(-c3ccc(C(=O)N(C)C)cc3)ccc2OC)C(=O)c2sc3c(F)ccc(F)c3c2Cl)CC1 [Compound 333, 3-Chloro-4,7-difluoro-benzo[b]thiophene-2-carboxylic acid (4′-dimethylcarbamoyl-4-methoxy-biphenyl-3-ylmethyl)-(4-methylamino-cyclohexyl)-amide hydrochloride]
< 50 nM: all assays above

CN[C@H]1CC[C@@H](N(Cc2cc(-c3ccc(C)nc3)ccc2OC)C(=O)c2sc3c(F)ccc(F)c3c2Cl)CC1 [Compound 334, 3-Chloro-4,7-difluoro-benzo[b]thiophene-2-carboxylic acid [2-methoxy-5-(6-methyl-pyridin-3-yl)-benzyl]-(4-methylamino-cyclohexyl)-amide bis(trifluoroacetate)]
< 50 nM: all assays above

CN[C@H]1CC[C@@H](N(Cc2cc(-c3ccc(S(C)(=O)=O)cc3)ccc2OC)C(=O)c2sc3c(F)ccc(F)c3c2Cl)CC1 [Compound 335, 3-Chloro-4,7-difluoro-benzo[b]thiophene-2-carboxylic acid (4′-methanesulfonyl-4-methoxy-biphenyl-3-ylmethyl)-(4-methylamino-cyclohexyl)-amide hydrochloride]
< 50 nM: all assays above

CN[C@H]1CC[C@@H](N(Cc2cc(-c3ccc(N(C)C(C)=O)cc3)ccc2OC)C(=O)c2sc3c(F)ccc(F)c3c2Cl)CC1 [Compound 336, 3-Chloro-4,7-difluoro-benzo[b]thiophene-2-carboxylic acid [4′-(acetyl-methyl-amino)-4-methoxy-biphenyl-3-ylmethyl]-(4-methylamino-cyclohexyl)-amide hydrochloride]
< 50 nM: all assays above

CN[C@H]1CC[C@@H](N(Cc2cc(-c3ccc(CO)cc3)ccc2OC)C(=O)c2sc3c(F)ccc(F)c3c2Cl)CC1 [Compound 338, 3-Chloro-4,7-difluoro-benzo[b]thiophene-2-carboxylic acid (4′-hydroxymethyl-4-methoxy-biphenyl-3-ylmethyl)-(4-methylamino-cyclohexyl)-amide trifluoroacetate]
< 50 nM: all assays above

CN[C@H]1CC[C@@H](N(Cc2cc(-c3ccncc3)ccc2OC)C(=O)c2sc3c(F)ccc(F)c3c2Cl)CC1 [Compound 342, 3-Chloro-4,7-difluoro-benzo[b]thiophene-2-carboxylic acid (2-methoxy-5-pyridin-4-yl-benzyl)-(4-methylamino-cyclohexyl)-amide dihydrochloride]
< 50 nM: all assays above

CN[C@H]1CC[C@@H](N(Cc2cc(-c3ccnc(N)c3)ccc2OC)C(=O)c2sc3c(F)ccc(F)c3c2Cl)CC1 [Compound 355]
< 50 nM: sonic hedgehog pathway [1] | sonic hedgehog pathway [2] | sonic hedgehog pathway [3]

CN[C@H]1CC[C@@H](N(Cc2cc(-c3ccc(NS(C)(=O)=O)nc3)ccc2OC)C(=O)c2sc3c(F)ccc(F)c3c2Cl)CC1 [Compound R10, 3-Chloro-4,7-difluoro-benzo[b]thiophene-2-carboxylic acid [5-(6-methanesulfonylamino-pyridin-3-yl)-2-methoxy-benzyl]-(4-methylamino-cyclohexyl)-amide dihydrochloride]
< 50 nM: sonic hedgehog pathway [1] | sonic hedgehog pathway [2] | sonic hedgehog pathway [3]
